# In patent US11172674B2, “Preservation solutions” (ORGAN PRESERVATION SOLUTIONS LIMITED, priority 2017, dated 2021):
# Key:
# [1] = Stability of aspirin in preservation solution on storage (HPLC); assay type: physicochemical
# Description: FIG. 1 illustrates the stability of aspirin in a preservation solution: HPLC methods were developed to measure the concentration of aspirin and salicylic acid in the Prior Art solution. Aspirin is rapidly hydrolysed to salicylic acid and acetic acid during storage. […] As an example, FIG. 1 illustrates that storage of the solution for 8 weeks results in 100% of the aspirin converting to salicylic acid and the production of equimolar amounts of damaging acetic acid.
# human cells = conditions: Heeneman et al 1993; cited from earlier work
"parent compound remaining ([1]; Prior Art solution, after 8 weeks storage, HPLC)",aspirin converting to salicylic acid ([1]; storage of the prior art solution for 8 weeks) [%],SMILES,concentration toxic to human cells (human cells) [µM]
none of the parent compound remains,100,"CC(=O)Oc1ccccc1C(=O)O [aspirin, acetylsalicylic acid]",–
–,–,N [ammonia],300
